# Results: patent US5145869A, “Phenylsulfonylalkanoic acid compounds and pharmaceuticals thereof” (Kissei Pharmaceutical Co., Ltd., priority 1991, dated 1992)
# System: gallbladder contraction induced by CCK-8
# Assay: CCK-Antagonism in Isolated Gallbladder
# Format: cell-based, male Hartley guinea-pig
# Conditions: Cavia porcellus; antagonism of gallbladder strip contraction induced by 10^-8 M CCK-8, 37° C.
# Description: CCK-Antagonism in Isolated Gallbladder
# Gallbladder strips isolated from male Hartley guinea-pig were prepared and suspended in Magnus bath filled with Krebs solution (1 g of initial tension). The solution kept at 37° C. was aerated with a mixture of 95% O2 and 5% CO2. The isometric contraction of strips was recorded through a force-displacement transducer. Antagonism by test drugs against gallbladder contraction induced by 10^-8 M CCK-8 was examined and IC50 value was calculated.
row,SMILES,IC50
1,"CCCCCN(CCCCC)C(=O)C(CCC(=O)O)CS(=O)(=O)c1ccc(Cl)c(Cl)c1 (single isomer, unassigned) [Compound 20]",5100 nM
2,"CCCCCN(CCCOC)C(=O)C(CCC(=O)O)CS(=O)(=O)c1ccc(Cl)c(Cl)c1 (racemic) [Compound 22, 5-(3,4-dichlorophenylsulfonyl)-4-[N-(3-methoxypropyl)-N-pentylcarbamoyl]pentanoic acid]",3400 nM
3,"CCCCCN(CCCCC)C(=O)C(CCC(=O)O)CS(=O)(=O)c1ccc(Cl)c(Cl)c1 (racemic) [Compound 19, 5-(3,4-Dichlorophenylsulfonyl)-4-(N,N-dipentylcarbamoyl)pentanoic acid]",11000 nM

# Biological target: T1, CCK-Receptor (Rattus norvegicus, UniProt P30551)
# T1 construct: Pancreatic plasma membranes were prepared by the method of Chang et al; from tissue; host or cells: pancreatic plasma membranes of male Wistar rats
# T1 sequence (P30551 1-444): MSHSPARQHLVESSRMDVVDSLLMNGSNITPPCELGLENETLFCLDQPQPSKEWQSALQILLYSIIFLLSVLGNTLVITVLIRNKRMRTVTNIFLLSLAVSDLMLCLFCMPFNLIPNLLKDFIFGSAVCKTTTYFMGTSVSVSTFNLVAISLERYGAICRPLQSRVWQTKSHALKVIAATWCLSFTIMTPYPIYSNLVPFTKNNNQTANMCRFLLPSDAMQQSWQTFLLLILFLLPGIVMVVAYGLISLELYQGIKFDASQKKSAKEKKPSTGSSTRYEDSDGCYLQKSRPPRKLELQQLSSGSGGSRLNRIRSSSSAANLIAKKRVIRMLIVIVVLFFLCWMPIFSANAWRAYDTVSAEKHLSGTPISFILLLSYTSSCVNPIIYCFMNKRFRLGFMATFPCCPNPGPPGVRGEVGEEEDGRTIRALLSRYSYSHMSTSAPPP
# Assay: CCK-Receptor Binding Assay in Pancreas
# Design: species or system Male Wistar rats
# Conditions: inhibition of specific 125I-CCK-8 (30 pM) binding, rat pancreatic plasma membranes, 37° C., 30 minutes, pH 7.4
# Description: CCK-Receptor Binding Assay in Pancreas
# Pancreatic plasma membranes were prepared by the method of Chang et al. (Molecular Pharmacology, Vol. 30, p. 212-, 1986). Male Wistar rats were sacrificed by decapitation and the pancreas was removed. The pancreas was dissected free from adipose tissue and minced in 50 volumes ice-cold Tris-HCl buffer (50 mM, pH 7.4 at 37° C.). Homogenization was performed using ultra disperser and the homogenate was centrifuged at 50,000×g for 10 minutes. The pellet was washed by resuspension in the same volume of fresh Tris-HCl buffer and again centrifuged as above. The final pellet was suspended in assay buffer (50 mM Tris-HCl, 5 mM MgCl2, 5 mM dithiothreitol, 2 mg/ml of bovine serum albumin, and 0.14 mg/ml of bacitracin), and used as receptor sources for binding assay.
# Thirty pM ^125 I-CCK-8 (final concentration), test drug or vehicle (for total binding) or 10^-6 M CCK-8 (for nonspecific binding) were added to the assay medium containing pancreatic plasma membranes (0.5 mg of original wet weight/ml). After incubation at 37° C. for 30 minutes, the assay medium was filtrated under reduced pressure through glass fiber filter and washed four times with 4 ml of ice-cold Tris-HCl buffer. The radioactivity trapped on the filter was counted by γ-counter (Packard 5650).
# Specific binding was defined as the radioactivity bound after subtracting nonspecific binding determined in the presence of 10^-6 M unlabeled CCK-8. IC50 value was calculated from inhibition percentage of specific binding by each test drug.
row,SMILES,IC50
1,CCCCCN(CCCCC)C(=O)C(CCC(=O)OCC)CS(=O)(=O)c1ccc(Cl)c(Cl)c1 (stereo not drawn) [Compound 18],1100 nM
2,CCCCCCCN(CCCCCCC)C(=O)C(CCC(=O)O)CS(=O)(=O)c1ccc(Cl)c(Cl)c1 (racemic) [Compound 34],430 nM
3,O=C(O)CCC(CS(=O)(=O)c1ccc(Cl)c(Cl)c1)C(=O)N(CCc1ccccc1)CCc1ccccc1 (stereo not drawn) [Compound 44],230 nM
4,CCCCCN(CCCCC)C(=O)C(CCC(=O)O)CS(=O)(=O)c1ccc(C)cc1 (stereo not drawn) [Compound 49],3400 nM
5,CCCCCN(CCCCC)C(=O)C(CCC(=O)O)CS(=O)(=O)c1ccc(C)c(C)c1 (stereo not drawn) [Compound 48],290 nM
6,"CCCCCN(CCCCC)C(=O)C(CCC(=O)O)CS(=O)(=O)c1ccc(C(C)=O)cc1 (stereo not drawn) [Compound 51, 5-(4-Acetylphenylsulfonyl)-4-(N,N-dipentylcarbamoyl)pentanoic acid]",2000 nM
7,"CCCCCN(CCc1ccccc1)C(=O)C(CCC(=O)O)CS(=O)(=O)c1ccc(Cl)c(Cl)c1 (stereo not drawn) [Compound 42, 5-(3,4-dichlorophenylsulfonyl)-4-(N-pentyl-N-phenethylcarbamoyl)pentanoic acid]",210 nM
8,CCCCCN(CCCc1ccccc1)C(=O)C(CCC(=O)O)CS(=O)(=O)c1ccc(Cl)c(Cl)c1 (stereo not drawn) [Compound 43],110 nM
9,CCCCCN(CCCCC)C(=O)C(CCC(=O)O)CS(=O)(=O)c1ccc([N+](=O)[O-])cc1 (stereo not drawn) [Compound 50],730 nM
10,CCCCCN(CCCCC)C(=O)C(CCC(=O)O)CS(=O)(=O)c1cccc(Cl)c1 (racemic) [Compound 27],4700 nM
11,CCCCCN(CCCCC)C(=O)C(CCC(=O)O)CS(=O)(=O)c1ccc(Cl)cc1 (stereo not drawn) [Compound 26],1000 nM
12,CCCCCN(CCCCC)C(=O)C(CCC(=O)O)CS(=O)(=O)c1cc(Cl)cc(Cl)c1 (stereo not drawn) [Compound 25],1500 nM
13,CCCCCN(CCCCC)C(=O)C(CC(=O)O)CS(=O)(=O)c1ccc(Cl)c(Cl)c1 (racemic) [Compound 29],95 nM
14,"COC(=O)CCC(CS(=O)(=O)c1ccc(Cl)c(Cl)c1)C(=O)N(C)Cc1ccccc1 (stereo not drawn) [Compound 41, methyl 4-(N-benzyl-N-methylcarbamoyl)-5-(3,4-dichlorophenylsulfonyl)pentanoate]",3500 nM
15,CCCCCN(CCCCC)C(=O)C(CC(=O)OC)CS(=O)(=O)c1ccc(Cl)c(Cl)c1 (stereo not drawn) [Compound 11],980 nM
16,CCCCCCN(CCCCc1ccccc1)C(=O)C(CCC(=O)OC)CS(=O)(=O)c1ccc(Cl)c(Cl)c1 (stereo not drawn) [Compound 40],5800 nM
17,CCCCCN(CCCCC)C(=O)C(CCC(=O)O)CS(=O)(=O)c1cccc(Br)c1 (racemic) [Compound 28],3000 nM
18,CCCCCN(CCCCC)C(=O)C(CCCC(=O)OC)CS(=O)(=O)c1ccc(Cl)c(Cl)c1 (stereo not drawn) [Compound 12],4800 nM
19,"CCCCCN(CCCCC)C(=O)C(CCC(=O)OC)CS(=O)(=O)c1ccc(Cl)c(Cl)c1 (racemic) [Compound 1, Methyl 5-(3,4-dichlorophenylsulfonyl)-4-(N,N-dipentylcarbamoyl)pentanoate]",880 nM
20,O=C(O)CCC(CS(=O)(=O)c1ccc(Cl)c(Cl)c1)C(=O)N(CCCc1ccccc1)CCCc1ccccc1 (stereo not drawn) [Compound 45],1000 nM
21,CCCCCCN(CCCCc1ccccc1)C(=O)C(CCC(=O)O)CS(=O)(=O)c1ccc(Cl)c(Cl)c1 (stereo not drawn) [Compound 46],570 nM

# Further lines, results first:
row,IC50,SMILES
1,8800 nM,CCCCN(C)C(=O)C(CCC(=O)O)CS(=O)(=O)c1ccc(Cl)c(Cl)c1 (racemic) [Compound 31]
2,280 nM,CCCCN(CCCC)C(=O)C(CCC(=O)O)CS(=O)(=O)c1ccc(Cl)c(Cl)c1 (racemic) [Compound 32]
3,1800 nM,CN(Cc1ccccc1)C(=O)C(CCC(=O)O)CS(=O)(=O)c1ccc(Cl)c(Cl)c1 (stereo not drawn) [Compound 47]
4,110 nM,"CCCCCN(CCCCC)C(=O)C(CCC(=O)O)CS(=O)(=O)c1ccc(Cl)c(Cl)c1 (single isomer, unassigned) [Compound 20]"
5,230 nM,CCCCCN(CCCCC)C(=O)C(CCCC(=O)O)CS(=O)(=O)c1ccc(Cl)c(Cl)c1 (racemic) [Compound 30]
6,1100 nM,"CCCCCN(CCCCC)C(=O)C(CCC(=O)O)CS(=O)(=O)c1ccc(Cl)c(Cl)c1 (single isomer, unassigned) [Compound 21]"
7,4000 nM,"CCCCCN(CCCOC)C(=O)C(CCC(=O)O)CS(=O)(=O)c1ccc(Cl)c(Cl)c1 (single isomer, unassigned) [Compound 24]"
8,230 nM,"CCCCCN(CCCOC)C(=O)C(CCC(=O)O)CS(=O)(=O)c1ccc(Cl)c(Cl)c1 (racemic) [Compound 22, 5-(3,4-dichlorophenylsulfonyl)-4-[N-(3-methoxypropyl)-N-pentylcarbamoyl]pentanoic acid]"
9,200 nM,"CCCCCN(CCCCC)C(=O)C(CCC(=O)O)CS(=O)(=O)c1ccc(Cl)c(Cl)c1 (racemic) [Compound 19, 5-(3,4-Dichlorophenylsulfonyl)-4-(N,N-dipentylcarbamoyl)pentanoic acid]"
10,290 nM,"CCCCCN(CCCOC)C(=O)C(CCC(=O)O)CS(=O)(=O)c1ccc(Cl)c(Cl)c1 (single isomer, unassigned) [Compound 23]"
11,130 nM,CC(C)CCN(CCC(C)C)C(=O)C(CCC(=O)O)CS(=O)(=O)c1ccc(Cl)c(Cl)c1 (racemic) [Compound 35]
12,59 nM,CCCCCCN(CCCCCC)C(=O)C(CCC(=O)O)CS(=O)(=O)c1ccc(Cl)c(Cl)c1 (racemic) [Compound 33]

# System: amylase secretion stimulated by CCK-8
# Assay: Effect on Amylase Secretion in Rats
# Format: in vivo, Male Wistar rats
# Conditions: Rattus norvegicus, intraduodenal administration 30 minutes before CCK-8 (10 μg/kg, subcutaneous), anesthetized rats
# Description: Effect on Amylase Secretion in Rats
# Male Wistar rats were anesthetized with urethane (1.5 g/kg, S.C.), and tracheal cannula was inserted. Biliopancreatic juice was collected from the cannula which had been inserted into the common bile duct. Thirty minutes after intraduodenal administration of test drug, amylase secretion was stimulated by subcutaneous injection of CCK-8 (10 μg/kg). Amylase concentration in the sample collected every 30 minutes during experiment was assayed using Amylase B Test (Wako), and ED50 value was calculated.
row,SMILES,ED50
1,"CCCCCN(CCCCC)C(=O)C(CCC(=O)O)CS(=O)(=O)c1ccc(Cl)c(Cl)c1 (single isomer, unassigned) [Compound 20]",4.7 mg/kg
2,"CCCCCN(CCCOC)C(=O)C(CCC(=O)O)CS(=O)(=O)c1ccc(Cl)c(Cl)c1 (racemic) [Compound 22, 5-(3,4-dichlorophenylsulfonyl)-4-[N-(3-methoxypropyl)-N-pentylcarbamoyl]pentanoic acid]",9.5 mg/kg
3,"CCCCCN(CCCCC)C(=O)C(CCC(=O)O)CS(=O)(=O)c1ccc(Cl)c(Cl)c1 (racemic) [Compound 19, 5-(3,4-Dichlorophenylsulfonyl)-4-(N,N-dipentylcarbamoyl)pentanoic acid]",2.2 mg/kg
